The results in this text go back to PubChem BioAssay (NCI).

Among the test systems are MOLT-4 leukemia; SNB-75 CNS; DMS 273 small cell lung; HCT-15 colon; SF-539 CNS; HL-60(TB) leukemia; IGROV1 ovarian; NCI-H460 lung; UACC-62 melanoma; DMS 114 small cell lung; COLO 205 colon; LXFL 529 NSCLC; HCC-2998 colon; SNB-19 CNS; MDA-MB-231 breast; DU-145 prostate.
Common to all, as to experiment: NCI tumour cell line growth inhibition, 48 h

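The compound was tested at five concentrations on cells cultured in 96-well plates, with a 48-hour exposure period. TGI marks complete inhibition of growth.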

`O=S(=O)(c1ccccc1)n1cnc(CCc2ccccc2)n1`: the TGI in the test on MOLT-4 leukemia, in the test on SNB-75 CNS, in the test on DMS 273 small cell lung, with HCT-15 colon, in the test with SF-539 CNS and in the test with HL-60(TB) leukemia was > 100 µM in each case. The TGI with IGROV1 ovarian, in the test on NCI-H460 lung, in the test with UACC-62 melanoma, in the test with DMS 114 small cell lung, with COLO 205 colon and in the test with LXFL 529 NSCLC was > 100 µM each time.

Consider `COC(=O)NN/C=C(\C=Nc1ccccc1)[N+](=O)[O-]`, for which the TGI in the test with MOLT-4 leukemia, in the test with DMS 273 small cell lung, with HCC-2998 colon, in the test on HCT-15 colon, in the test with HL-60(TB) leukemia and in the test on IGROV1 ovarian was > 100 µM each time. The TGI in the test on NCI-H460 lung, with UACC-62 melanoma, in the test on SNB-19 CNS, in the test on DMS 114 small cell lung, with COLO 205 colon and in the test with LXFL 529 NSCLC was > 100 µM in each case.

As for `CCOC(=O)c1ncn2c1[nH]c(=O)c1ccccc12`, the TGI with MOLT-4 leukemia, in the test with SNB-75 CNS, with DMS 273 small cell lung, in the test on HCT-15 colon, in the test with SF-539 CNS and with IGROV1 ovarian was > 100 µM in each case. In addition, the TGI in the test on NCI-H460 lung, with UACC-62 melanoma, in the test on SNB-19 CNS, in the test on DMS 114 small cell lung, in the test on COLO 205 colon and in the test with LXFL 529 NSCLC was > 100 µM in each case.

Take `C=C(C)C1Cc2c(cc(OC)c3c(=O)c4ccccc4n(C)c23)O1` (stereo not given): the TGI with SNB-75 CNS, in the test on DMS 273 small cell lung, in the test on HCC-2998 colon, with HCT-15 colon, in the test with SF-539 CNS and in the test on HL-60(TB) leukemia was > 100 µM each time. Further, the TGI in the test on IGROV1 ovarian, in the test with NCI-H460 lung, in the test on UACC-62 melanoma, with SNB-19 CNS, in the test with DMS 114 small cell lung and in the test with COLO 205 colon was > 100 µM throughout. Further, in the test on LXFL 529 NSCLC, the TGI was > 100 µM.

Regarding `CC1(Br)S(=O)(=O)OCCOS1(=O)=O`, the TGI in the test with MOLT-4 leukemia, in the test on SNB-75 CNS, in the test with DMS 273 small cell lung, in the test with HCC-2998 colon, with HCT-15 colon and in the test on SF-539 CNS was > 100 µM in each case. Further, the TGI in the test with HL-60(TB) leukemia, in the test on IGROV1 ovarian, with NCI-H460 lung, in the test with UACC-62 melanoma, with SNB-19 CNS and in the test on DMS 114 small cell lung was > 100 µM in each case. Besides, the TGI with COLO 205 colon and in the test on LXFL 529 NSCLC was > 100 µM in each case.

With `CC(=O)C(CN(C)Cc1ccccc1)C(c1ccccc1)c1c(O)c2ccccc2oc1=O` (stereo not given), the TGI in the test with MOLT-4 leukemia, in the test on SNB-75 CNS, with DMS 273 small cell lung, in the test with HCC-2998 colon, with HCT-15 colon and in the test with SF-539 CNS was > 100 µM throughout. Moreover, the TGI is > 100 µM in the test with HL-60(TB) leukemia; > 100 µM in the test on IGROV1 ovarian; > 100 µM in the test on NCI-H460 lung; > 100 µM in the test with UACC-62 melanoma; 93.2 µM with SNB-19 CNS; > 100 µM in the test on DMS 114 small cell lung. Further, the TGI in the test with COLO 205 colon and in the test on LXFL 529 NSCLC was > 100 µM in each case.

Consider `OC1=CN=C(C2CC2)Oc2ccccc21`, for which the TGI in the test with MOLT-4 leukemia, in the test with SNB-75 CNS, in the test on DMS 273 small cell lung, with HCC-2998 colon, in the test with HCT-15 colon and in the test on SF-539 CNS was > 100 µM each time. Besides, the TGI with HL-60(TB) leukemia, with IGROV1 ovarian, in the test on NCI-H460 lung, in the test with UACC-62 melanoma, in the test with SNB-19 CNS and with DMS 114 small cell lung was > 100 µM throughout. Also, the TGI with COLO 205 colon and in the test with LXFL 529 NSCLC was > 100 µM in each case.

As to `CC(C)(C)c1cc(Oc2ccc(C#N)c(C#N)c2)cc(C(C)(C)C)c1`, the TGI with MOLT-4 leukemia was > 100 µM; in the test with SNB-75 CNS, > 100 µM; in the test with DMS 273 small cell lung it was 27.1 µM; in the test with HCC-2998 colon, > 100 µM; in the test with HCT-15 colon it was > 100 µM; with SF-539 CNS, > 100 µM. The TGI in the test with HL-60(TB) leukemia, with IGROV1 ovarian, in the test with NCI-H460 lung, in the test on UACC-62 melanoma, in the test on SNB-19 CNS and in the test with DMS 114 small cell lung was > 100 µM each time. The TGI with COLO 205 colon and in the test on LXFL 529 NSCLC was > 100 µM each time.

In the case of `O=C(Cc1nc2ccc(C(=O)c3ccccc3)cc2[nH]c1=O)C(=O)Nc1ccc(C(F)(F)F)cc1[N+](=O)[O-]`, the TGI with MOLT-4 leukemia, with SNB-75 CNS, with DMS 273 small cell lung, in the test on HCC-2998 colon, in the test with HCT-15 colon and in the test with SF-539 CNS was > 100 µM throughout. Also, the TGI in the test with HL-60(TB) leukemia, in the test with IGROV1 ovarian, with NCI-H460 lung, in the test with UACC-62 melanoma, in the test on SNB-19 CNS and in the test with COLO 205 colon was > 100 µM throughout. In addition, in the test with LXFL 529 NSCLC, the TGI is > 100 µM.

As to `COc1ccccc1NC(=O)CC(=O)n1nc(-c2ccccc2)c(N=Nc2ccccc2[N+](=O)[O-])c1-c1ccccc1`, the TGI in the test on MOLT-4 leukemia, in the test on SNB-75 CNS, with DMS 273 small cell lung, in the test on HCC-2998 colon, in the test on SF-539 CNS and with HL-60(TB) leukemia was > 100 µM in each case. The TGI with IGROV1 ovarian, with NCI-H460 lung, in the test on UACC-62 melanoma, in the test on SNB-19 CNS, with DMS 114 small cell lung and in the test on COLO 205 colon was > 100 µM each time. Also, the TGI in the test with LXFL 529 NSCLC was > 100 µM.

Regarding `CC(C)(C)OC(=O)N(CCCCNC(=O)c1ccccc1)CCCNC(=O)c1ccccc1`, the TGI in the test on MOLT-4 leukemia, with SNB-75 CNS, with HCC-2998 colon, with HCT-15 colon, in the test with SF-539 CNS and with MDA-MB-231 breast was > 100 µM each time. For the same compound, the TGI with HL-60(TB) leukemia, in the test on IGROV1 ovarian, in the test with NCI-H460 lung, in the test on UACC-62 melanoma, in the test on SNB-19 CNS and with COLO 205 colon was > 100 µM each time. In addition, the TGI in the test with DU-145 prostate is > 100 µM.

On to `Cc1ccc(S(=O)(=O)C(C#N)c2nc3ccccc3nc2N2CCOCC2)cc1` (stereo not given), for which the TGI in the test with MOLT-4 leukemia was 58.7 µM; with SNB-75 CNS it was > 100 µM; in the test on DMS 273 small cell lung, 49.4 µM; in the test with HCC-2998 colon, 28.5 µM; in the test on HCT-15 colon it was > 100 µM; with SF-539 CNS it was > 100 µM. Moreover, the TGI in the test with IGROV1 ovarian is 59.1 µM; in the test with NCI-H460 lung, 39.7 µM; in the test with UACC-62 melanoma, 28.5 µM; in the test with SNB-19 CNS, 95.6 µM; in the test with DMS 114 small cell lung it was 49.5 µM; in the test on COLO 205 colon, > 100 µM. Moreover, the TGI in the test with LXFL 529 NSCLC is > 100 µM.

`C=CC(Br)(CBr)CCC(Br)C(C)(C)Br` (stereo not given): the TGI is 35.8 µM in the test with MOLT-4 leukemia; 22.3 µM in the test on SNB-75 CNS; 22.5 µM in the test on DMS 273 small cell lung; 31.8 µM in the test on HCT-15 colon; 29.9 µM with SF-539 CNS; 28.5 µM in the test on IGROV1 ovarian. Besides, the TGI in the test on NCI-H460 lung was determined as 23.4 µM; with UACC-62 melanoma, 24.6 µM; in the test on DMS 114 small cell lung, 24.6 µM; with COLO 205 colon it was 28.8 µM; with LXFL 529 NSCLC, 27.7 µM.

On to `C=CCC1(O)C(=O)OC2C(O)COC21O` (stereo not given), for which the TGI in the test with MOLT-4 leukemia, with SNB-75 CNS, with HCC-2998 colon, with HCT-15 colon, in the test on SF-539 CNS and with MDA-MB-231 breast was > 100 µM in each case. Moreover, the TGI with HL-60(TB) leukemia, in the test on IGROV1 ovarian, with NCI-H460 lung, in the test with UACC-62 melanoma, in the test with SNB-19 CNS and with COLO 205 colon was > 100 µM each time. Moreover, the TGI in the test with DU-145 prostate is > 100 µM.

In the case of `Cc1no[n+]([O-])c1/C=N/NS(=O)(=O)c1ccccc1`, the TGI in the test on MOLT-4 leukemia, in the test on HCC-2998 colon, with HCT-15 colon, in the test on SF-539 CNS, in the test with HL-60(TB) leukemia and with IGROV1 ovarian was > 100 µM each time. For the same compound, the TGI in the test on UACC-62 melanoma, with SNB-19 CNS, with DMS 114 small cell lung, in the test on COLO 205 colon and in the test on LXFL 529 NSCLC was > 100 µM throughout.

As for `O=C(Nc1ccccc1)c1cc2c(cc1Cl)SC(NNCCO)=NS2(=O)=O`, the TGI in the test on MOLT-4 leukemia, with SNB-75 CNS, in the test on HCC-2998 colon, in the test with HCT-15 colon, with SF-539 CNS and in the test with MDA-MB-231 breast was > 100 µM in each case. Also, the TGI in the test on HL-60(TB) leukemia, with IGROV1 ovarian, in the test on NCI-H460 lung, with UACC-62 melanoma, in the test on SNB-19 CNS and in the test on COLO 205 colon was > 100 µM in each case. Further, in the test on DU-145 prostate, the TGI was > 100 µM.
